Assays:
Type in all cases: cell-based
MDA-MB-231 cells = assay: MDA-MB-231 cell proliferation assay (Cell-Titer-Glo, 120 hr); details: for EC50: Homo sapiens, MDA-MB-231, 120 h, read-out: MDA-MB 231 Cell Prolif. 120 hr EC50; for MDA-MB 231 Cell Prolif. 120 hr YMin (%): minimal percent of DMSO control observed
Summary of the method: (§1)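 Growth inhibition was read as CellTiter-Glo luminescence after 120 h at 37 °C in RPMI/10% FBS, with 400 MKN45 or 800 MDA-MB-231 cells seeded per well. Compounds were tested in 10-point half-log series starting at 1 or 10 uM (0.1% DMSO), in triplicate for MKN45 and duplicate for MDA-MB-231. EC50 values are four-parameter fits to %DMSO control, and Ymin-obs is the minimal observed %DMSO.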

MKN45 cells = assay: MKN45 cell proliferation assay (Cell-Titer-Glo, 120 hr); details: for EC50: Homo sapiens, MKN-45, 120 h, read-out: MKN45 Cell Prolif. 120 hr EC50; for MKN45 Cell Prolif. 120 hr YMin (%): minimal percent of DMSO control observed
Summary of the method: as §1

WEE1 = target: T1, WEE1 (Homo sapiens, UniProt P30291+Q96SW2); assay: WEE1-ePL degradation assay (293T-LentiX, InCELL Hunter luminescence, 4 hr); details: for DC50: LentiX-HEK293T cells expressing WEE1-ePL, 4 hr incubation, read-out: 293T-LentiX WEE1-ePL Degradation 4 hr EC50; for 293T-LentiX WEE1-ePL Degradation 4 hr YMin (%): lower limit of fit, % of DMSO control signal remaining
T1 construct: C-terminal ePL-tagged (DiscoverX, Fremont, CA) full-length WEE1 expression construct; expressed in transfected cells; host or cells: LentiX-HEK293T (Invitrogen), lentivirally transduced; the cells also over-express GSPT1-GN
T1 sequence (P30291 whole entry): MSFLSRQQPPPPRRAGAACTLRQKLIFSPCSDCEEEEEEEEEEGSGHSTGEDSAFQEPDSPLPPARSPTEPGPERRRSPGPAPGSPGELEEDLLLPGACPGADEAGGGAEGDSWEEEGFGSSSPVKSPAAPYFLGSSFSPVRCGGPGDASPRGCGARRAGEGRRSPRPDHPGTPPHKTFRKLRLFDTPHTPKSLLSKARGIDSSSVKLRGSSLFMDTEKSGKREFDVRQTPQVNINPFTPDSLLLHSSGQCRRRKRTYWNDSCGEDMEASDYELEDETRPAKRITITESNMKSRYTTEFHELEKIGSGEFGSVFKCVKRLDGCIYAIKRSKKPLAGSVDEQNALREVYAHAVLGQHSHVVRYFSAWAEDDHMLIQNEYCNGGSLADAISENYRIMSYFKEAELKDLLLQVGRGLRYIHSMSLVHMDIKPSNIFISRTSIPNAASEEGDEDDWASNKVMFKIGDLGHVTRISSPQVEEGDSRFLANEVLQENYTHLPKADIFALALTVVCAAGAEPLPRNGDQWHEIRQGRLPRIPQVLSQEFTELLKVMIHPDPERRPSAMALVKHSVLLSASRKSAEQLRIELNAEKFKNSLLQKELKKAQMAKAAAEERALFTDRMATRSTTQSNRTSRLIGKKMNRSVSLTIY
T1 sequence (Q96SW2 whole entry): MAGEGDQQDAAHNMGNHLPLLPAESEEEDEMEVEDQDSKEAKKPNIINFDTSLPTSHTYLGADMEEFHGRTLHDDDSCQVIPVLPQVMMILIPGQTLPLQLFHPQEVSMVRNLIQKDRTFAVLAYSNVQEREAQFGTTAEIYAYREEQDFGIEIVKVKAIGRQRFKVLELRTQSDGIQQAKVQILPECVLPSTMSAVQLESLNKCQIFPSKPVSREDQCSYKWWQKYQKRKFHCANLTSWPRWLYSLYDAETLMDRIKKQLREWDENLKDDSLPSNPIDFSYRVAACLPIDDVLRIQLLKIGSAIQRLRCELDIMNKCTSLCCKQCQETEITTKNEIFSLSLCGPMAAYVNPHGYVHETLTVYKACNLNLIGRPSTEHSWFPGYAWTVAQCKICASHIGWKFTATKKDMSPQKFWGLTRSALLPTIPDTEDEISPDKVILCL
T1 sequence (Q16531 whole entry partner): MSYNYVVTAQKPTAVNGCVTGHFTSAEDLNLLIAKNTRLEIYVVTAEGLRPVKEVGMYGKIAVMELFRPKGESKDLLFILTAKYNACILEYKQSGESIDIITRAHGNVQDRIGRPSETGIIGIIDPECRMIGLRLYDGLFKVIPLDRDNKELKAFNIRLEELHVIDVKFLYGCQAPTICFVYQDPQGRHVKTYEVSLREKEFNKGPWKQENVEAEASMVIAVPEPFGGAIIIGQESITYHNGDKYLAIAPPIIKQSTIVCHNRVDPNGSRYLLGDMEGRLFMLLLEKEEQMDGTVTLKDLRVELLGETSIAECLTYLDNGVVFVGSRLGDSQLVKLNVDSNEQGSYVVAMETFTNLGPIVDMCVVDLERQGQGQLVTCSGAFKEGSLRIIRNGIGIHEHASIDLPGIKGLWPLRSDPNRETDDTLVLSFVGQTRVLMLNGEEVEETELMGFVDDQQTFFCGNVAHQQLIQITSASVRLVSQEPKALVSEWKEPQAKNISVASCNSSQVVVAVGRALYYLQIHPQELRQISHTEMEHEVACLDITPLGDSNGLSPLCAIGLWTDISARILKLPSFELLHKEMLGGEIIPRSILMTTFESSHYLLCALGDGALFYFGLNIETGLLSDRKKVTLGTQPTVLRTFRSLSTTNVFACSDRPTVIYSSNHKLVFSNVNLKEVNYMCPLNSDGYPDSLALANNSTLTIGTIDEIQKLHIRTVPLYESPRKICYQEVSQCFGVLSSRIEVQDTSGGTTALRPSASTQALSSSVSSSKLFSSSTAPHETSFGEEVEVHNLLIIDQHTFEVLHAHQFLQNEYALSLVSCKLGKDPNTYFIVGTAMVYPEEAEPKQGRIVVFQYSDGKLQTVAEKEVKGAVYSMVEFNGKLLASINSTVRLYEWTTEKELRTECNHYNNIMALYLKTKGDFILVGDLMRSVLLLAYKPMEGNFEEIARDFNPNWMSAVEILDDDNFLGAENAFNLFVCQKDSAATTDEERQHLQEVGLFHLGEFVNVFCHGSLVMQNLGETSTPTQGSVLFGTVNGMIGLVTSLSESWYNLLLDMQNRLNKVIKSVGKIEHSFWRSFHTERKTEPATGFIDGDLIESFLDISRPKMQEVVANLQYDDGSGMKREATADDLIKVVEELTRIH
Summary of the method: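 EC50 comes from a four-parameter logistic fit of ePL luminescence (InCELL Hunter), with DMSO control defining Ymax. Compounds ran as 10-point 3-fold dilutions from 1 or 10 µM for 4 h at 37 °C. Cells were HEK293T-LentiX with ePL-tagged full-length WEE1 and over-expressed Cereblon-resistant GSPT1-GN.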

SMILES	EC50 (MDA-MB-231 cells) [nM]	MDA-MB 231 Cell Prolif. 120 hr YMin (%) (MDA-MB-231 cells)	EC50 (MKN45 cells) [nM]	MKN45 Cell Prolif. 120 hr YMin (%) (MKN45 cells)	DC50 (WEE1) [nM]	293T-LentiX WEE1-ePL Degradation 4 hr YMin (%) (WEE1)
COC[C@@H]1CN(Cc2ccc3nc(C4CCN(C5CN(C)C5)CC4)ccc3c2)C[C@H]1Oc1ccc2c(c1)CN([C@H]1CCC(=O)NC1=O)C2=O [Example 122, (3S)-3-(5-{[(3S,4S)-4-(methoxymethyl)-1-({2-[1-(1-methylazetidin-3-yl)piperidin-4-yl]quinolin-6-yl}methyl)pyrrolidin-3-yl]oxy}-1-oxo-2,3-dihydro-1H-isoindol-2-yl)piperidine-2,6-dione]	23	59.3	2	8.5	2	22.0
COC[C@@H]1CN(Cc2ccc3nc(C4CCOCC4)ccc3n2)C[C@H]1Oc1ccc2c(c1)CN([C@H]1CCC(=O)NC1=O)C2=O [Example 128, (3S)-3-(5-{[(3S,4S)-4-(methoxymethyl)-1-{[6-(oxan-4-yl)-1,5-naphthyridin-2-yl]methyl}pyrrolidin-3-yl]oxy}-1-oxo-2,3-dihydro-1H-isoindol-2-yl)piperidine-2,6-dione]	127	83.3	11	18.2	1	30.5
COC[C@@H]1CN(Cc2cnc3nc(C4CCOCC4)ccc3c2)C[C@H]1Oc1ccc2c(c1)CN([C@H]1CCC(=O)NC1=O)C2=O [Example 129, (3S)-3-(5-{[(3S,4S)-4-(methoxymethyl)-1-{[7-(oxan-4-yl)-1,8-naphthyridin-3-yl]methyl}pyrrolidin-3-yl]oxy}-1-oxo-2,3-dihydro-1H-isoindol-2-yl)piperidine-2,6-dione]	319	80.6	10	10.6	2	26.0
COC[C@@H]1CN(Cc2cnc3nc(C4CCOCC4)ncc3c2)C[C@H]1Oc1ccc2c(c1)CN([C@H]1CCC(=O)NC1=O)C2=O [Example 134, (3S)-3-(5-{[(3S,4S)-4-(methoxymethyl)-1-{[2-(oxan-4-yl)pyrido[2,3-d]pyrimidin-6-yl]methyl}pyrrolidin-3-yl]oxy}-1-oxo-2,3-dihydro-1H-isoindol-2-yl)piperidine-2,6-dione]	1420	75.6	108	12.9	37	32.0
COC[C@@H]1CN(Cc2cc3ccc(C4CCOCC4)nc3cn2)C[C@H]1Oc1ccc2c(c1)CN([C@H]1CCC(=O)NC1=O)C2=O [Example 135, (3S)-3-(5-{[(3S,4S)-4-(methoxymethyl)-1-{[2-(oxan-4-yl)-1,7-naphthyridin-6-yl]methyl}pyrrolidin-3-yl]oxy}-1-oxo-2,3-dihydro-1H-isoindol-2-yl)piperidine-2,6-dione]	31	55.6	1	8.8	1	35.7
COC[C@@H]1CN(Cc2ccc3nc(C4CCOCC4)cnc3c2)C[C@H]1Oc1ccc2c(c1)CN([C@H]1CCC(=O)NC1=O)C2=O [Example 136, (3S)-3-(5-{[(3S,4S)-4-(methoxymethyl)-1-{[2-(oxan-4-yl)quinoxalin-6-yl]methyl}pyrrolidin-3-yl]oxy}-1-oxo-2,3-dihydro-1H-isoindol-2-yl)piperidine-2,6-dione]	287	91.8	41	26.6	2	31.9
O=C1CC[C@H](N2Cc3cc(O[C@@H]4CN(Cc5cc(F)c6nc(C7CCOCC7)ccc6c5)C[C@H]4CO)ccc3C2=O)C(=O)N1 [Example 139, (3S)-3-(5-{[(3S,4S)-1-{[8-fluoro-2-(oxan-4-yl)quinolin-6-yl]methyl}-4-(hydroxymethyl)pyrrolidin-3-yl]oxy}-1-oxo-2,3-dihydro-1H-isoindol-2-yl)piperidine-2,6-dione]	133	65.9	5	10.3	2	20.2
O=C1CC[C@H](N2Cc3cc(O[C@@H]4CN(Cc5cc(F)c6ncc(N7CCOCC7)cc6c5)C[C@H]4COC(F)(F)F)ccc3C2=O)C(=O)N1 [Example 140, (3S)-3-(5-{[(3S,4S)-1-{[8-fluoro-3-(morpholin-4-yl)quinolin-6-yl]methyl}-4-[(trifluoromethoxy)methyl]pyrrolidin-3-yl]oxy}-1-oxo-2,3-dihydro-1H-isoindol-2-yl)piperidine-2,6-dione]	56	24.8	1	8.3	1	25.3
COC[C@@H]1CN(Cc2cc(F)c3nc(N4CCN(C5COC5)CC4)ncc3c2)C[C@H]1Oc1ccc2c(c1)CN([C@H]1CCC(=O)NC1=O)C2=O [Example 141, (3S)-3-(5-{[(3S,4S)-1-({8-fluoro-2-[4-(oxetan-3-yl)piperazin-1-yl]quinazolin-6-yl}methyl)-4-(methoxymethyl)pyrrolidin-3-yl]oxy}-1-oxo-2,3-dihydro-1H-isoindol-2-yl)piperidine-2,6-dione]	44	31.7	1	11.4	1	26.5
COC[C@@H]1CN(Cc2cc(F)c3nc(N4CCN(C5COC5)CC4)ccc3c2)C[C@H]1Oc1ccc2c(c1)CN([C@H]1CCC(=O)NC1=O)C2=O [Example 142, (3S)-3-(5-{[(3S,4S)-1-({8-fluoro-2-[4-(oxetan-3-yl)piperazin-1-yl]quinolin-6-yl}methyl)-4-(methoxymethyl)pyrrolidin-3-yl]oxy}-1-oxo-2,3-dihydro-1H-isoindol-2-yl)piperidine-2,6-dione]	24	43.3	1	7.1		19.9
COC[C@@H]1CN(Cc2cc(F)c3nc(C4CCN(C5COC5)CC4)ccc3c2)C[C@H]1Oc1ccc2c(c1)CN([C@H]1CCC(=O)NC1=O)C2=O [Example 143, (3S)-3-(5-{[(3S,4S)-1-({8-fluoro-2-[1-(oxetan-3-yl)piperidin-4-yl]quinolin-6-yl}methyl)-4-(methoxymethyl)pyrrolidin-3-yl]oxy}-1-oxo-2,3-dihydro-1H-isoindol-2-yl)piperidine-2,6-dione]	27	35.5	1	8.9	1	27.3
